Results as given in US10870638B2, “Pyridazinone compound or its salt, and herbicide containing it” (ISHIHARA SANGYO KAISHA, LTD., priority 2016, dated 2020).

What was measured:
Type in all cases: in vivo
Conditions in all cases: active ingredient amount 31 g/ha, 14th day after application
[1] = tested on: wheat (Triticum aestivum L.); assay: Test Example 2: soil application on the day after sowing, growth inhibition rate on 14th day
Excerpt: (§1) Upland field soil was put into a 1/300,000 hectare pot, and seeds of various plants (barnyardgrass (Echinochloa crus-qalli L.), crabgrass (Digitaris sanquinalis L.), green foxtail (Setaria viridis L.), redroot pigweed (Amaranthus retroflexus L.), prickly sida (Sida spinosa L.), velvetleaf (Abutilon theophrasti MEDIC.), rice (Oryza sativa L.), corn (Zea mays L.), wheat (Triticum aestivum L.), soybean (Glycine max Merr.)) were sown. On the day after sowing, wettable powders or emulsifiable concentrates of the compounds of the present invention prepared in accordance with a conventional preparation method, were weighed so as to achieve the prescribed active ingredient amounts, and diluted with water in an amount corresponding to 1,000 liters per 1 hectare, followed by soil application by a small sprayer.
(§2) On the 14th day after the application, the state of growth of the respective plants was visually observed, and the herbicidal effect was evaluated by a growth inhibition rate (%) of 0 (equivalent to the non-treated area) to 100 (complete kill).

rice (Oryza sativa L.) [2] = assay: as above
Excerpt: as §1, §2

[3] = tested on: velvetleaf (Abutilon theophrasti MEDIC.); assay: as above
Excerpt: as §1, §2

corn (Zea mays L.) [4] = assay: as above
Excerpt: as §1, §2

[5] = tested on: soybean (Glycine max Merr.); assay: as above
Excerpt: as §1, §2

[6] = tested on: prickly sida (Sida spinosa L.); assay: as above
Excerpt: as §1, §2

[7] = tested on: green foxtail (Setaria viridis L.); assay: as above
Excerpt: as §1, §2

[8] = tested on: barnyardgrass (Echinochloa crus-qalli L.); assay: as above
Excerpt: as §1, §2

[9] = tested on: crabgrass (Digitaris sanquinalis L.); assay: as above
Excerpt: as §1, §2

[10] = tested on: wheat (Triticum aestivum L.); assay: Test Example 1: foliar treatment, growth inhibition rate on 14th day
Outline: (§3)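 Using a small sprayer, formulated compound in water (0.1 vol % surfactant, 1,000 L/ha) was applied to seedlings grown from seed in upland soil. Fourteen days on, growth state was observed and expressed as percent inhibition from 0 to 100.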

rice (Oryza sativa L.) [11] = assay: as above
Outline: as §3

corn (Zea mays L.) [12] = assay: as above
Outline: as §3

[13] = tested on: soybean (Glycine max Merr.); assay: as above
Outline: as §3

[14] = tested on: green foxtail (Setaria viridis L.); assay: as above
Outline: as §3

[15] = tested on: crabgrass (Digitaria sanquinalis L.); assay: as above
Outline: as §3

[16] = tested on: redroot pigweed (Amaranthus retroflexus L.); assay: as above
Outline: as §3

[17] = tested on: wild oat (Avena fatua L.); assay: as above
Outline: as §3

[18] = tested on: barnyardgrass (Echinochloa crus-qalli L.); assay: as above
Outline: as §3

[19] = tested on: italian ryegrass (Lolium multiflorum Lam.); assay: as above
Outline: as §3

[20] = visual, 0 = non-treated, 100 = complete kill

Structure (SMILES)	Growth inhibition rate (%) Wheat [10]	Growth inhibition rate (%) Rice (rice (Oryza sativa L.) [11])	Growth inhibition rate (%) Corn (corn (Zea mays L.) [12])	Growth inhibition rate (%) Soybean [13]	Growth inhibition rate (%) Green foxtail [14]	Growth inhibition rate (%) Crabgrass [15]	Growth inhibition rate (%) Redroot pigweed [16]	Growth inhibition rate (%) Wild oat [17]	Growth inhibition rate (%) Barnyardgrass [18]	Growth inhibition rate (%) Italian ryegrass [19]	other results
CCn1ncc(O)c(-c2cc(Oc3nc4ccc(Cl)cc4o3)ccc2C)c1=O [Compound 2-167]	25%	60%	90%	30%	100%	99%	0%	45%	100%	80%	Growth inhibition rate (%) Wheat [1]: 0%; Growth inhibition rate (%) Rice (rice (Oryza sativa L.) [2]): 0%; Growth inhibition rate (%) Velvetleaf [3]: 0%; Growth inhibition rate (%) Corn (corn (Zea mays L.) [4]): 0%; Growth inhibition rate (%) Soybean [5]: 0%; Growth inhibition rate (%) Prickly sida [6]: 0%; Growth inhibition rate (%) Green foxtail [7]: 100%; Growth inhibition rate (%) Barnyardgrass [8]: 40%; Growth inhibition rate (%) Crabgrass [9]: 99%
COCCOCOc1c(C)nn(C)c(=O)c1-c1cc(Oc2ncc(C(F)(F)F)cc2Cl)ccc1C [1-134]	98%	88%	93%	0%	100%	99%	0%	99%	98%	98%	–
Cc1ccc(Oc2ncc(Cl)cc2C(F)(F)F)cc1-c1c(O)c(C)nn(C)c1=O [Compound 2-92]	0%	0%	80%	0%	10%	30%	20%	50%	80%	78%	–
Cc1ccc(Oc2ncc(C(F)(F)F)cc2Cl)cc1-c1c(OC(=O)c2nn(C)cc2C)c(C)nn(C)c1=O [1-136]	90%	25%	99%	0%	100%	98%	0%	98%	100%	98%	–
Cc1ccc(Oc2ccc3cc(Br)ccc3n2)cc1-c1c(O)c(C)nn(C)c1=O [Compound 2-94]	0%	0%	0%	0%	100%	0%	0%	40%	100%	20%	–
CCS(=O)(=O)Oc1c(C)nn(C)c(=O)c1-c1cc(Oc2cnc3cc(Cl)ccc3n2)ccc1C [Compound 3-68]	–	–	–	–	–	–	–	–	–	–	Growth inhibition rate (%) Wheat [10, 20]: 30%; Growth inhibition rate (%) Rice (rice (Oryza sativa L.) [11]; [20]): 0%; Growth inhibition rate (%) Corn (corn (Zea mays L.) [12]; [20]): 20%; Growth inhibition rate (%) Soybean [13, 20]: 0%; Growth inhibition rate (%) Green foxtail [14, 20]: 100%; Growth inhibition rate (%) Crabgrass [15, 20]: 95%; Growth inhibition rate (%) Redroot pigweed [16, 20]: 0%; Growth inhibition rate (%) Wild oat [17, 20]: 90%; Growth inhibition rate (%) Barnyardgrass [18, 20]: 100%; Growth inhibition rate (%) Italian ryegrass [19, 20]: 83%
Cc1ccc(Oc2cnc3cc(Cl)ccc3n2)cc1-c1c(OC(=O)C2CC2)c(C)nn(C)c1=O [Compound 3-37]	99%	95%	45%	30%	100%	99%	10%	98%	100%	99%	–
CCc1ccc(Oc2nc3cc(Cl)ccc3o2)cc1-c1c(O)c(C)nn(C)c1=O [Compound 2-162]	99%	100%	90%	0%	99%	100%	10%	100%	100%	100%	Growth inhibition rate (%) Wheat [1]: 20%; Growth inhibition rate (%) Rice (rice (Oryza sativa L.) [2]): 0%; Growth inhibition rate (%) Velvetleaf [3]: 0%; Growth inhibition rate (%) Corn (corn (Zea mays L.) [4]): 0%; Growth inhibition rate (%) Soybean [5]: 0%; Growth inhibition rate (%) Green foxtail [7]: 20%; Growth inhibition rate (%) Barnyardgrass [8]: 90%; Growth inhibition rate (%) Crabgrass [9]: 20%
Cc1ccc(Oc2nc3ccccc3o2)cc1-c1c(O)c(C)nn(C)c1=O [Compound 2-104]	20%	10%	10%	10%	70%	60%	10%	35%	85%	30%	–
Cc1ccc(Nc2ncc(C(F)(F)F)cc2Cl)cc1-c1c(O)c(C)nn(C)c1=O [1-144]	0%	20%	10%	20%	60%	10%	0%	10%	30%	0%	–
COC(=O)OC(C)Oc1cnn(C)c(=O)c1-c1cc(Oc2nc3ccc(Cl)cc3o2)ccc1C (stereo not shown) [Compound 2-178]	75%	15%	83%	0%	100%	100%	0%	95%	100%	98%	–
COC(=O)OC(C)Oc1c(C)nn(C)c(=O)c1-c1cc(Oc2cnc3cc(Cl)ccc3n2)ccc1C (stereo not shown) [Compound 3-44]	85%	85%	20%	10%	100%	99%	0%	100%	100%	98%	–
CCc1nn(C)c(=O)c(-c2cc(Oc3ncc(C(F)(F)F)cc3Cl)ccc2C)c1OC(C)=O [1-137]	85%	85%	95%	15%	80%	75%	0%	93%	100%	93%	–
Cc1ccc(Oc2cnc3cc(Cl)ccc3n2)cc1-c1c(OC(=O)Cc2ccccc2)c(C)nn(C)c1=O [Compound 3-47]	–	–	–	–	–	–	–	–	–	–	Growth inhibition rate (%) Wheat [10, 20]: 98%; Growth inhibition rate (%) Rice (rice (Oryza sativa L.) [11]; [20]): 30%; Growth inhibition rate (%) Corn (corn (Zea mays L.) [12]; [20]): 40%; Growth inhibition rate (%) Soybean [13, 20]: 20%; Growth inhibition rate (%) Green foxtail [14, 20]: 100%; Growth inhibition rate (%) Crabgrass [15, 20]: 99%; Growth inhibition rate (%) Redroot pigweed [16, 20]: 0%; Growth inhibition rate (%) Wild oat [17, 20]: 99%; Growth inhibition rate (%) Barnyardgrass [18, 20]: 100%; Growth inhibition rate (%) Italian ryegrass [19, 20]: 99%
